Reference: patent US20240270762A1, “PENICILLIN-BINDING PROTEIN INHIBITORS” (priority 2021, published 2024)
≈ marks a conversion by molar mass, not a printed value. Read-outs that look alike come from different tables or passages of the source.

What was measured:
P. aeruginosa ATCC 35151 = test: microbe, parasite or virus in culture; type: cell-based; conditions: Pseudomonas aeruginosa, ATCC35151, read-out: Minimum inhibitory concentration, P. aeruginosa ATCC 35151
N. gonorrhoeae WHO K = test: Liquid broth MIC in Fastidious broth; conditions: Neisseria gonorrhoeae
Procedure: Liquid broth-based assays were used for antibacterial testing of PBP inhibitors in Neisseria gonorrhoeae. Briefly, cryo-preserved bacterial cultures of clinical strains were streaked for isolation on Chocolate Agar (72 g/L (2×) GC Agar Base (BD #228950) and 2% (2×) Hemoglobin was autoclaved at 121° C. for 20 minutes to sterilize. Once cooled to ˜50° C. the 2×GC Agar Base and 2× Hemoglobin solutions are combined and 1% IsoVitaleX Enrichment (BD #211876) was added to the solution). Strains were incubated at 36° C. and 5% CO2 to allow growth of colonies, 24 hours before inoculum preparation. 2-fold serial dilutions of test compounds were conducted in a 96 well plate with a final volume of 75 μL per well at 2-fold the final desired concentration in Fastidious broth (Remel #R07664). For preparation of assay inoculum, a direct suspension was prepared by aseptically swabbing 10-15 colonies from agar plates into culture tubes containing 2 mL of fresh sterile saline. After the dilution plates were set up, direct suspensions were then diluted in a cuvette containing sterile saline and the optical density was measured at 600 nm. Inocula were diluted such that 75 μL of this culture in Fastidious broth results in a starting bacterial concentration of 5×10^5 CFU/mL when added to the dilution plates. The plates were incubated for ˜24 hours at 36° C. and 5% CO2.

N. gonorrhoeae MS11 = test: Liquid broth MIC in Fastidious broth; conditions: Neisseria gonorrhoeae
[1] = tested on: N. gonorrhoeae ATCC 49226; test: Liquid broth MIC in Fastidious broth; conditions: Neisseria gonorrhoeae
P. aeruginosa CDC-0054 = test: microbe, parasite or virus in culture; type: cell-based; conditions: Pseudomonas aeruginosa, CDC0054, read-out: Minimum inhibitory concentration, P. aeruginosa CDC-0054
[2] = target: T1, PBP3 from Acinetobacter baumannii (ATCC 19606) (Acinetobacter baumannii, UniProt A0ABX6CK25); test: Bocillin-FL fluorescence polarization competition binding, A. baumannii PBP3; conditions: fluorescence polarization competition binding assay using Bocillin-FL; read-out: A. baumannii PBP3 Potency
T1 sequence (A0ABX6CK25 64-610): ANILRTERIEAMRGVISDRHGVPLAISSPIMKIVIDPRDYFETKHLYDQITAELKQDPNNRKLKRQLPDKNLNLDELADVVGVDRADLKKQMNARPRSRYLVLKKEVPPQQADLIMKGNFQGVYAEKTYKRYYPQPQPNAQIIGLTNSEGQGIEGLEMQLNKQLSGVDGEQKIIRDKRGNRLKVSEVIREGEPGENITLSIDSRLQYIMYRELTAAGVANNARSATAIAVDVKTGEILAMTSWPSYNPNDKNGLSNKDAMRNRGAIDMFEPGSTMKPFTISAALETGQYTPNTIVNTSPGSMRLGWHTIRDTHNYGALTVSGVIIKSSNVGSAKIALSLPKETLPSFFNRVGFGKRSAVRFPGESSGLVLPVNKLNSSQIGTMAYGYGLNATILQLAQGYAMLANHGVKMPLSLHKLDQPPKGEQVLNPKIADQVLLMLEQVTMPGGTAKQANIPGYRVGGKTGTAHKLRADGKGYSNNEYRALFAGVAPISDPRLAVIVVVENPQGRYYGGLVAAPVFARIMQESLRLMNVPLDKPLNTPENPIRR
In short: (§1)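 Purified PBP was preincubated with inhibitor (E. coli PBP3 1.5 μM, 30 min; P. aeruginosa PBP3 0.75 μM, A. baumannii PBP3 0.2 μM and PBP1a 1 μM, 15 min), then Bocillin-FL (0.1 μM; 0.05 μM for PBP1a) added and FP read up to 60 min. EC50 = 50% loss of bound probe.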

[3] = target: T2, PBP3 from Escherichia coli (K-12) (Escherichia coli, UniProt P0AD68); test: Bocillin-FL fluorescence polarization competition binding, E. coli PBP3
T2 construct: made in house
In short: as §1

N. gonorrhoeae WHO Z = test: Liquid broth MIC in Fastidious broth; conditions: Neisseria gonorrhoeae
A. baumannii ATCC 17978 = test: microbe, parasite or virus in culture; type: cell-based; conditions: Acinetobacter baumannii, ATCC17978, read-out: MIC, A. baumannii ATCC 17978
[4] = tested on: P. aeruginosa (ΔmexAB-oprM); test: Broth microdilution MIC in iron-depleted CAMHB (IDM); type: cell-based; conditions: Pseudomonas aeruginosa; iron-depleted CAMHB (IDM); […]; read-out: Minimum inhibitory concentration, P. aeruginosa ΔmexAB-oprM
[5] = read-out: Minimum Inhibitory Concentration (MIC), N. gonorrhoeae WHO K
[6] = MS11, read-out: Minimum Inhibitory Concentration (MIC), N. gonorrhoeae MS11
[7] = ATCC49226, read-out: Minimum Inhibitory Concentration (MIC), N. gonorrhoeae ATCC 49226
[8] = read-out: Minimum Inhibitory Concentration (MIC), N. gonorrhoeae WHO Z
[9] = read-out: Minimum Inhibitory Concentration, WHO K
[10] = MS11, read-out: Minimum Inhibitory Concentration, MS11
[11] = ATCC49226, read-out: Minimum Inhibitory Concentration, ATCC 49226
[12] = read-out: Minimum Inhibitory Concentration, WHO Z

T2 sequence (P0AD68 1-577): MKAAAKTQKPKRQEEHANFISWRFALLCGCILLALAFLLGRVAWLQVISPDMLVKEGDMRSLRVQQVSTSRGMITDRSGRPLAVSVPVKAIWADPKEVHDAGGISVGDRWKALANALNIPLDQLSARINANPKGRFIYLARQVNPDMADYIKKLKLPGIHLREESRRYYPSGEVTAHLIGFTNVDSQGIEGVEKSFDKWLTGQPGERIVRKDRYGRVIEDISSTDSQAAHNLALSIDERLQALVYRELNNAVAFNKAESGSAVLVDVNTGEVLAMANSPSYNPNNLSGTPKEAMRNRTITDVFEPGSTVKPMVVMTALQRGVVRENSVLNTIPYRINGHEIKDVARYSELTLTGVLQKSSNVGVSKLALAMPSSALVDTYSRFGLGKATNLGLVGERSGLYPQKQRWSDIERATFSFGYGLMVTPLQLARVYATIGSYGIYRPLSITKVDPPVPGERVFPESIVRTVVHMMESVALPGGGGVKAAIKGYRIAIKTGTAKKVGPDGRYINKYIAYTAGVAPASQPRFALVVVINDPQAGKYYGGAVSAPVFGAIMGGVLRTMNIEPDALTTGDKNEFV

Compound	MIC (P. aeruginosa ATCC 35151) [µg/mL]	MIC (N. gonorrhoeae WHO K; [5]) [µg/mL]	MIC (N. gonorrhoeae MS11; [6]) [µg/mL]	MIC [1, 7] [µg/mL]	MIC (P. aeruginosa CDC-0054) [µg/mL]	IC50 [2] [µM]	EC50 [3] [µM]	MIC (N. gonorrhoeae WHO Z; [8]) [µg/mL]	MIC (A. baumannii ATCC 17978) [µg/mL]	MIC [4] [µg/mL]	MIC (N. gonorrhoeae WHO K; [9]) [µg/mL]	MIC (N. gonorrhoeae MS11; [10]) [µg/mL]	MIC [1, 11] [µg/mL]	MIC (N. gonorrhoeae WHO Z; [12]) [µg/mL]
O=C(NCCCN1CCN(C(=O)NC(C(=O)N[C@H]2Cc3ccc(F)c(C(=O)O)c3OB2O)c2cc(F)c(O)c(O)c2Cl)C(=O)C1=O)c1nccs1 (stereo partly drawn) [Example 211, (3R)-3-(2-(2-chloro-5-fluoro-3,4-dihydroxyphenyl)-2-(2,3-dioxo-4-(3-(thiazole-2-carboxamido)propyl)piperazine-1-carboxamido)acetamido)-7-fluoro-2-hydroxy-3,4-dihydro-2H-benzo[e][1,2]oxaborinine-8-carboxylic acid]	< 1	> 64	16 to 32 (≈ 21.3 to 42.6 µM)	16 to 32 (≈ 21.3 to 42.6 µM)	2 to 4 (≈ 2.66 to 5.33 µM)	< 10	< 10	16 to 32 (≈ 21.3 to 42.6 µM)	< 1	< 1	–	–	–	–
O=C(NCCS(=O)(=O)N1CCN(C(=O)N[C@H](C(=O)N[C@H]2Cc3ccc(F)c(C(=O)O)c3OB2O)c2cc(F)c(O)c(O)c2Cl)C1=O)c1nccs1 [Example 263, (R)-3-((S)-2-(2-chloro-5-fluoro-3,4-dihydroxyphenyl)-2-(2-oxo-3-((2-(thiazole-2-carboxamido)ethyl)sulfonyl)imidazolidine-1-carboxamido)acetamido)-7-fluoro-2-hydroxy-3,4-dihydro-2H-benzo[e][1,2]oxaborinine-8-carboxylic acid]	2 to 4 (≈ 2.59 to 5.18 µM)	–	–	–	8 to 16 (≈ 10.4 to 20.7 µM)	10 to 50	> 250	–	< 1	8 to 16 (≈ 10.4 to 20.7 µM)	> 64	> 64	> 64	> 64
O=C(NCCCN1CCN(C(=O)NC(C(=O)N[C@H]2Cc3ccc(F)c(C(=O)O)c3OB2O)c2cc(F)c(O)c(O)c2Cl)C1=O)c1ccncc1 (stereo partly drawn) [Example 256, (3R)-3-(2-(2-chloro-5-fluoro-3,4-dihydroxyphenyl)-2-(3-(3-(isonicotinamido)propyl)-2-oxoimidazolidine-1-carboxamido)acetamido)-7-fluoro-2-hydroxy-3,4-dihydro-2H-benzo[e][1,2]oxaborinine-8-carboxylic acid]	< 1	–	–	–	2 to 4 (≈ 2.79 to 5.58 µM)	< 10	10 to 50	–	< 1	< 1	> 64	> 64	16 to 32 (≈ 22.3 to 44.6 µM)	16 to 32 (≈ 22.3 to 44.6 µM)
O=C(NCCN1CCN(C(=O)NC(C(=O)N[C@H]2Cc3ccc(F)c(C(=O)O)c3OB2O)c2cc(F)c(O)c(O)c2Cl)C(=O)C1=O)c1ccncc1 (stereo partly drawn) [Example 216, (3R)-3-(2-(2-chloro-5-fluoro-3,4-dihydroxyphenyl)-2-(4-(2-(isonicotinamido)ethyl)-2,3-dioxopiperazine-1-carboxamido)acetamido)-7-fluoro-2-hydroxy-3,4-dihydro-2H-benzo[e][1,2]oxaborinine-8-carboxylic acid]	< 1	> 64	16 to 32 (≈ 21.9 to 43.8 µM)	16 to 32 (≈ 21.9 to 43.8 µM)	8 to 16 (≈ 10.9 to 21.9 µM)	< 10	< 10	16 to 32 (≈ 21.9 to 43.8 µM)	< 1	< 1	–	–	–	–
O=C(NCCS(=O)(=O)N1CCN(C(=O)N[C@@H](C(=O)N[C@H]2Cc3ccc(F)c(C(=O)O)c3OB2O)c2cc(F)c(O)c(O)c2Cl)C1=O)c1nccs1 [Example 264, (R)-3-((R)-2-(2-chloro-5-fluoro-3,4-dihydroxyphenyl)-2-(2-oxo-3-((2-(thiazole-2-carboxamido)ethyl)sulfonyl)imidazolidine-1-carboxamido)acetamido)-7-fluoro-2-hydroxy-3,4-dihydro-2H-benzo[e][1,2]oxaborinine-8-carboxylic acid]	< 1	–	–	–	< 1	< 10	< 10	–	< 1	< 1	16 to 32 (≈ 20.7 to 41.4 µM)	16 to 32 (≈ 20.7 to 41.4 µM)	16 to 32 (≈ 20.7 to 41.4 µM)	4 to 8 (≈ 5.18 to 10.4 µM)
O=C(NCCN1CCN(C(=O)N[C@@H](C(=O)N[C@H]2Cc3ccc(F)c(C(=O)O)c3OB2O)c2cc(F)c(O)c(O)c2Cl)C(=O)C1=O)Nc1ccncc1 [Example 221, (R)-3-((R)-2-(2-chloro-5-fluoro-3,4-dihydroxyphenyl)-2-(2,3-dioxo-4-(2-(3-(pyridin-4-yl)ureido)ethyl)piperazine-1-carboxamido)acetamido)-7-fluoro-2-hydroxy-3,4-dihydro-2H-benzo[e][1,2]oxaborinine-8-carboxylic acid]	< 1	> 64	16 to 32 (≈ 21.5 to 42.9 µM)	16 to 32 (≈ 21.5 to 42.9 µM)	2 to 4 (≈ 2.68 to 5.36 µM)	< 10	< 10	> 64	< 1	< 1	–	–	–	–
O=C(O)c1cccc2c1OB(O)[C@@H](NC(=O)[C@@H](NC(=O)c1cnc3n(c1=O)CCS3)c1ccc(P(=O)(O)O)cc1)C2 (single isomer, unassigned) [Example 196]	–	16 to 32 (≈ 26.7 to 53.3 µM)	16 to 32 (≈ 26.7 to 53.3 µM)	16 to 32 (≈ 26.7 to 53.3 µM)	–	–	> 250	16 to 32 (≈ 26.7 to 53.3 µM)	–	–	–	–	–	–
O=C(CN1CCN(C(=O)NC(C(=O)N[C@H]2Cc3ccc(F)c(C(=O)O)c3OB2O)c2cc(F)c(O)c(O)c2Cl)C(=O)C1=O)NCc1ccc(O)cc1 (stereo partly drawn) [Example 236, (3R)-3-(2-(2-chloro-5-fluoro-3,4-dihydroxyphenyl)-2-(4-(2-((4-hydroxybenzyl)amino)-2-oxoethyl)-2,3-dioxopiperazine-1-carboxamido)acetamido)-7-fluoro-2-hydroxy-3,4-dihydro-2H-benzo[e][1,2]oxaborinine-8-carboxylic acid]	–	–	–	–	–	< 10	< 10	–	< 1	–	–	–	–	–
CCN1CCN(C(=O)NC(C(=O)N[C@H]2Cc3cccc(C(=O)O)c3OB2O)c2ccc(P(=O)(O)O)c(F)c2O)C(=O)C1=O (stereo partly drawn) [Example 198, (3R)-3-(2-(4-ethyl-2,3-dioxopiperazine-1-carboxamido)-2-(3-fluoro-2-hydroxy-4-phosphonophenyl)acetamido)-2-hydroxy-3,4-dihydro-2H-benzo[e][1,2]oxaborinine-8-carboxylic acid]	–	4 to 8 (≈ 6.43 to 12.9 µM)	< 1	< 1	–	–	10 to 50	1 to 2 (≈ 1.61 to 3.21 µM)	–	–	–	–	–	–
O=C(O)c1cccc2c1OB(O)[C@@H](NC(=O)[C@H](NC(=O)c1cnc3n(c1=O)CCS3)c1ccc(P(=O)(O)O)cc1)C2 (single isomer, unassigned) [Example 197]	–	16 to 32 (≈ 26.7 to 53.3 µM)	16 to 32 (≈ 26.7 to 53.3 µM)	16 to 32 (≈ 26.7 to 53.3 µM)	–	–	10 to 50	16 to 32 (≈ 26.7 to 53.3 µM)	–	–	–	–	–	–
